Test results published in PMC6906348 (Therapeutic Advances in Medical Oncology, 2019).

Test system: patients with advanced HCC
Assay: Safety: adverse events
Type: in vivo, human
Settings: for ALT increased (AE regardless of study drug relationship) / AST increased (AE regardless of study drug relationship) / Abdominal pain (AE regardless of study drug relationship) / Acute kidney injury (AE regardless of study drug relationship) / Anemia (AE regardless of study drug relationship) / Ascites (AE regardless of study drug relationship) / Blood bilirubin increased (AE regardless of study drug relationship) / Blood creatinine increased (AE regardless of study drug relationship) / Constipation (AE regardless of study drug relationship) / Decreased appetite (AE regardless of study drug relationship) / Diarrhea (AE regardless of study drug relationship) / Fatigue (AE regardless of study drug relationship) / Hyperbilirubinemia (AE regardless of study drug relationship) / Hypoalbuminemia (AE regardless of study drug relationship) / Insomnia (AE regardless of study drug relationship) / Leukopenia (AE regardless of study drug relationship) / Nausea (AE regardless of study drug relationship) / Number of patients with at least one event (AE regardless of study drug relationship) / Peripheral edema (AE regardless of study drug relationship) / Platelet count decreased (AE regardless of study drug relationship) / Pyrexia (AE regardless of study drug relationship) / Vomiting (AE regardless of study drug relationship) / Weight decreased (AE regardless of study drug relationship): patients n (%)
[1] = 300 mg capsule BID n = 9, All grades
[2] = 300 mg capsule BID n = 9, Grades 3/4
[3] = 400 mg tablet BID n = 2, All grades
[4] = 400 mg tablet BID n = 2, Grades 3/4
[5] = 600 mg capsule BID n = 27, All grades

In the case of `CNC(=O)c1ccc(-c2cnc3ncc(Cc4ccc5ncccc5c4)n3n2)cc1F` [capmatinib], the “predefined qualifying adverse events in dose-determining stage” value (300 mg BID capsules, first 28 days of treatment, six evaluable patients) is reported as “No qualifying AEs”, the “ALT increased (AE regardless of study drug relationship)” value (shortened to “ALT increased”) [1] is reported as 0 and the “AST increased (AE regardless of study drug relationship)” value (“AST increased” for short) [1] is reported as 1 (11). For the same compound, the “Abdominal pain (AE regardless of study drug relationship)” value (“Abdominal pain” below) [1] was 2 (22), the “Acute kidney injury (AE regardless of study drug relationship)” value (“Acute kidney injury” below) [1] was 2 (22) and the “Anemia (AE regardless of study drug relationship)” value (“Anemia” for short) [1] was 3 (33). For the same compound, the “Ascites (AE regardless of study drug relationship)” value (“Ascites” for short) [1] was 1 (11), the “Blood bilirubin increased (AE regardless of study drug relationship)” value (from here on “Blood bilirubin increased”) [1] was 2 (22) and the “Blood creatinine increased (AE regardless of study drug relationship)” value (“Blood creatinine increased” below) [1] was 3 (33). For the same compound, the “Constipation (AE regardless of study drug relationship)” value (“Constipation” below) [1] was 2 (22), the “Decreased appetite (AE regardless of study drug relationship)” value (from here on “Decreased appetite”) [1] was 3 (33) and the “Diarrhea (AE regardless of study drug relationship)” value (“Diarrhea” for short) [1] was 5 (56). The “Fatigue (AE regardless of study drug relationship)” value (shortened to “Fatigue”) [1] was 3 (33), the “Hyperbilirubinemia (AE regardless of study drug relationship)” value (shortened to “Hyperbilirubinemia”) [1] was 0 and the “Hypoalbuminemia (AE regardless of study drug relationship)” value (from here on “Hypoalbuminemia”) [1] was 2 (22). For the same compound, the “Insomnia (AE regardless of study drug relationship)” value (from here on “Insomnia”) [1] was 1 (11), the “Leukopenia (AE regardless of study drug relationship)” value (shortened to “Leukopenia”) [1] was 0 and the “Nausea (AE regardless of study drug relationship)” value (from here on “Nausea”) [1] was 6 (67). The “Number of patients with at least one event (AE regardless of study drug relationship)” value (“Number of patients” for short) [1] was 9 (100), the “Peripheral edema (AE regardless of study drug relationship)” value (“Peripheral edema” for short) [1] was 2 (22) and the “Platelet count decreased (AE regardless of study drug relationship)” value (shortened to “Platelet count decreased”) [1] was 0. For the same compound, the “Pyrexia (AE regardless of study drug relationship)” value (“Pyrexia” below) [1] was 1 (11), the “Vomiting (AE regardless of study drug relationship)” value (“Vomiting” for short) [1] was 4 (44) and the “Weight decreased (AE regardless of study drug relationship)” value (shortened to “Weight decreased”) [1] was 2 (22). For the same compound, the “ALT increased” value [2] was 0, the “AST increased” value [2] was 1 (11) and the “Abdominal pain” value [2] was 0. The “Acute kidney injury” value [2] was 1 (11), the “Anemia” value [2] was 2 (22) and the “Ascites” value [2] was 0. The “Blood bilirubin increased” value [2] was 1 (11), the “Blood creatinine increased” value [2] was 0 and the “Constipation” value [2] was 0. The “Decreased appetite” value [2] was 0, the “Diarrhea” value [2] was 1 (11) and the “Fatigue” value [2] was 0. The “Hyperbilirubinemia” value [2] was 0, the “Hypoalbuminemia” value [2] was 1 (11) and the “Insomnia” value [2] was 0. For the same compound, the “Leukopenia” value [2] was 0, the “Nausea” value [2] was 0 and the “Number of patients” value [2] was 5 (56). For the same compound, the “Peripheral edema” value [2] was 0, the “Platelet count decreased” value [2] was 0 and the “Pyrexia” value [2] was 0. The “Vomiting” value [2] was 1 (11), the “Weight decreased” value [2] was 0 and the “ALT increased” value [3] was 1 (50). For the same compound, the “AST increased” value [3] was 0, the “Abdominal pain” value [3] was 0 and the “Acute kidney injury” value [3] was 0. The “Anemia” value [3] was 0, the “Ascites” value [3] was 0 and the “Blood bilirubin increased” value [3] was 0. The “Blood creatinine increased” value [3] was 0, the “Constipation” value [3] was 1 (50) and the “Decreased appetite” value [3] was 0. For the same compound, the “Diarrhea” value [3] was 0, the “Fatigue” value [3] was 1 (50) and the “Hyperbilirubinemia” value [3] was 0. For the same compound, the “Hypoalbuminemia” value [3] was 0, the “Insomnia” value [3] was 1 (50) and the “Leukopenia” value [3] was 0. The “Nausea” value [3] was 1 (50), the “Number of patients” value [3] was 2 (100) and the “Peripheral edema” value [3] was 0. The “Platelet count decreased” value [3] was 0, the “Pyrexia” value [3] was 0 and the “Vomiting” value [3] was 1 (50). For the same compound, the “Weight decreased” value [3] was 0, the “ALT increased” value [4] was 1 (50) and the “AST increased” value [4] was 0. For the same compound, the “Abdominal pain” value [4] was 0, the “Acute kidney injury” value [4] was 0 and the “Anemia” value [4] was 0. For the same compound, the “Ascites” value [4] was 0, the “Blood bilirubin increased” value [4] was 0 and the “Blood creatinine increased” value [4] was 0. The “Constipation” value [4] was 0, the “Decreased appetite” value [4] was 0 and the “Diarrhea” value [4] was 0. The “Fatigue” value [4] was 0, the “Hyperbilirubinemia” value [4] was 0 and the “Hypoalbuminemia” value [4] was 0. For the same compound, the “Insomnia” value [4] was 0, the “Leukopenia” value [4] was 0 and the “Nausea” value [4] was 0. For the same compound, the “Number of patients” value [4] was 1 (50), the “Peripheral edema” value [4] was 0 and the “Platelet count decreased” value [4] was 0. The “Pyrexia” value [4] was 0, the “Vomiting” value [4] was 0 and the “Weight decreased” value [4] was 0. For the same compound, the “ALT increased” value [5] was 6 (22) and the “AST increased” value [5] was 11 (41).
